Legend:
[1] = system: human prostate cancer cell DU145; experiment: MTT assay, survival rate of tumor cells (antiproliferative activity); format: cell-based; conditions: DU-145, 72 h, read-out: Antiproliferative activity against human prostate cancer cell DU145, IC50
Method: DU145 cells (human prostate cancer cells) in logarithmic growth phase were digested with 0.25% trypsin-EDTA to prepare single cell suspension, which was inoculated into 96-well plate overnight according to 1500 cells/well/100 μL, and fresh medium containing different concentrations of compounds to be tested and corresponding solvent control was added, and 100 μL (DMSO final concentration <0.1%) was added to each well, and the 96-well plate was further cultured at 37° C. for 72 h. 20 μL of freshly prepared PBS solution containing 5 mg/mL MTT was added to each well, and the 96-well plate was further cultured for 4 h. After the supernatant was discarded, 180 μL of DMSO was added to each well to dissolve the MTT formazan precipitate. After the 96-well plate was shaked and mixed by a micro oscillator, the optical density (OD) at the detection wavelength of 570 nm was measured. With DMSO-treated tumor cells as the control group, the inhibition rate on the growth of tumor cells of the compound to be tested was calculated from the following formula, and the IC50 was calculated according to the median-effect equation. Inhibition rate (%)=(average OD value of control group-average OD value of dosing group)/average OD value of control group×100%

STAT3 transcription = experiment: STAT3 specific luciferase double reporter gene experiment in DU145 cells; format: cell-based, human; conditions: for STAT3 transcription inhibition activity: DU145, STAT3 specific luciferase double reporter; for IC50: Homo sapiens, DU-145, DU145 with high STAT3 expression, 24 h
Method: The luciferase plasmids STAT3-TA-Luc and pGMLR-TK were transiently co-transfected into DU145 cells by Lipofectamine 3000. After staying overnight, different concentrations of compounds to be tested were added and cultured for 24 hours. The supernatant was discarded, and the residue was washed twice with PBS, and then 20 μL of lysis solution was added to shake and lyse for 5 min. The supernatant was transferred to a 96-well Costar whiteplate, and 70 μL of Dual-Glo luciferase substrate solution was added, and the relative fluorescence intensity of firefly luciferase was detected, and then 70 μL of Stop-Glo substrate solution was added, and the relative fluorescence intensity of sea kidney luciferase was detected, the normalized value was obtained, and the inhibition rate and IC50 value were calculated.

p-STAT3 (Tyr705) = experiment: Western blotting of p-STAT3 expression in DU145 cells; format: cell-based, human
Method: DU145 cells treated for 16 h with different concentrations of examples 12, 23, 33 and 34 and DU145 cells in control group were collected and washed twice with pre-cooled PBS. After appropriate amount of RIPA lysate (50 mM Tris-HCl, 1 mM EDTA, 1% Triton X-100, 150 mM NaCl, 0.1% SDS, 1 mM NaF, Na3VO4, protease inhibitor, pH 7.4) was added to lyse for 1 h on ice, the reaction mixture was centrifuged at 4° C., 12,000 rpm for 20 min, and then the supernatant was collected for protein quantification and boiled for denaturation. Equal amount of protein was taken for 10% SDS-PAGE electrophoresis. The specific antibodies of p-STAT3 (Tyr705) and STAT3 were used as primary antibody, which was incubated overnight at 4° C. The corresponding HRP-labeled secondary antibody was used, incubated at room temperature for 2 h, and washed. ECL chemiluminescence substrate reaction solution was added to develop in gel imaging system, and the image was saved. (3-actin was used as internal reference.

Row | IC50 (STAT3 transcription) | SMILES | IC50 [1] | STAT3 transcription inhibition activity (STAT3 transcription) | also measured
1 | 10000 ± 2100 nM | COc1ccc(S(=O)(=O)Nc2cc(C(=O)NCc3cccnc3)ccc2C)cc1 [Example 13, 3-((4-methoxyphenyl)sulfonamido)-4-methyl-N-(pyridin-3-ylmethyl)benzamide] | 180 ± 80 nM | obvious STAT3 transcription inhibition activity | –
2 | 6200 ± 300 nM | Cc1ccc(S(=O)(=O)Nc2cc(F)cc(C(=O)NCc3cccnc3)c2)cc1 [Example 9, 3-fluoro-5-((4-methylphenyl)sulfonamido)-N-(pyridin-3-ylmethyl)benzamide] | 900 ± 20 nM | obvious STAT3 transcription inhibition activity | –
3 | 9700 ± 1300 nM | CCc1ccc(C(=O)NCc2cccnc2)cc1NS(=O)(=O)c1ccc(C)cc1 [Example 6, 4-ethyl-3-((4-methylphenyl)sulfonamido)-N-(pyridin-3-ylmethyl)benzamide] | 860 ± 80 nM | obvious STAT3 transcription inhibition activity | –
4 | 1000 nM | Cc1ccc(C(=O)NCc2cccnc2)cc1NS(=O)(=O)c1ccc(C2CC2)cc1 [Example 23, 3-((4-cyclopropylphenyl)sulfonamido)-4-methyl-N-(pyridin-3-ylmethyl)benzamide] | 50 ± 8 nM | obvious STAT3 transcription inhibition activity | inhibitory activity on STAT3 phosphorylation (p-STAT3 (Tyr705); DU145, 0.5 μM concentration): obvious inhibitory activity
5 | – | CCOc1ccc(S(=O)(=O)Nc2cc(C(=O)NCc3cccnc3)ccc2C)cc1 [Example 15, 3-((4-ethoxyphenyl)sulfonamido)-4-methyl-N-(pyridin-3-ylmethyl)benzamide] | 860 ± 60 nM | – | –
6 | – | Cc1ccc(C(=O)NCc2cccnc2)cc1NS(=O)(=O)c1ccc2ccccc2c1 [Example 29, 4-methyl-3-(naphthalene-2-sulfonamido)-N-(pyridin-3-ylmethyl)benzamide] | 1000 ± 70 nM | – | –
7 | – | Cc1ccc(S(=O)(=O)Nc2cc(Cl)cc(C(=O)NCc3cccnc3)c2)cc1 [Example 10, 3-chloro-5-((4-methylphenyl)sulfonamido)-N-(pyridin-3-ylmethyl)benzamide] | 340 ± 10 nM | – | –
8 | – | Cc1ccc(C(=O)NCc2cccnc2)cc1NS(=O)(=O)c1ccc2c(c1)OCCO2 [Example 28, 3-((2,3-dihydrobenzo[b][1,4]dioxine)-6-sulfonamido)-4-methyl-N-(pyridin-3-ylmethyl)benzamide] | 420 ± 10 nM | – | –
9 | – | Cc1ccc(S(=O)(=O)Nc2cc(C(=O)NCc3cccnc3)ccc2C)cc1C [Example 16, 3-((3,4-dimethylphenyl)sulfonamido)-4-methyl-N-(pyridin-3-ylmethyl)benzamide] | 970 ± 30 nM | – | –
10 | – | Cc1ccc(S(=O)(=O)Nc2cc(C)cc(C(=O)NCc3cccnc3)c2)cc1 [Example 7, 3-methyl-5-((4-methylphenyl)sulfonamido)-N-(pyridin-3-ylmethyl)benzamide] | 340 ± 10 nM | – | –
11 | 8200 ± 20 nM | Cc1ccc(S(=O)(=O)Nc2cc(C(=O)NCc3cccnc3)ccc2C)c(C)c1 [Example 17, 3-((2,4-dimethylphenyl)sulfonamido)-4-methyl-N-(pyridinylmethyl)benzamide] | 500 ± 40 nM | – | –
12 | – | Cc1ccc(C(=O)NCc2cccnc2)cc1NS(=O)(=O)c1ccc2c(c1)OCO2 [Example 26, 3-(benzo[d][1,3]dioxole-5-sulfonamido)-4-methyl-N-(pyridin-3-ylmethyl)benzamide] | 610 ± 140 nM | – | –
13 | – | Cc1ccc(C(=O)NCc2cccnc2)cc1NS(=O)(=O)c1ccc2c(c1)CCO2 [Example 27, 3-((2,3-dihydrobenzofuran)-5-sulfonamido)-4-methyl-N-(pyridin-3-ylmethyl)benzamide] | 1200 ± 10 nM | – | –
14 | – | Cc1ccc(S(=O)(=O)Nc2cccc(C(=O)NCc3cccnc3)c2)cc1 [Example 2, 3-((4-methylphenyl)sulfonamido)-N-(pyridin-3-ylmethyl)benzamide] | 700 ± 150 nM | – | –
15 | 15000 ± 1400 nM | Cc1ccc(C(=O)NCc2cccnc2)cc1NS(=O)(=O)c1ccc(F)cc1 [Example 20, 3-((4-fluorophenyl)sulfonamido)-4-methyl-N-(pyridin-3-ylmethyl)benzamide] | 3470 ± 1220 nM | obvious STAT3 transcription inhibition activity | –
16 | – | Cc1ccc(C(=O)NCc2cccnc2)cc1NS(=O)(=O)c1ccc2c(c1)CCC2 [Example 25, 3-((2,3-dihydro-1H-indene)-5-sulfonamido)-4-methyl-N-(pyridinylmethyl)benzamide] | 900 ± 40 nM | – | –
17 | 8000 nM | Cc1ccc(S(=O)(=O)Nc2cc(C(=O)NCc3ccc(C(F)(F)F)nc3)ccc2C)cc1 [Example 35, 4-methyl-3-((4-methylphenyl)sulfonamido)-N-((6-(trifluoromethyl)pyridin-3-yl)methyl)benzamide] | 200 ± 70 nM | obvious STAT3 transcription inhibition activity | –
18 | – | Cc1ccc(S(=O)(=O)Nc2cc(C(=O)NCc3cccnc3)ccc2Cl)cc1 [Example 4, 4-chloro-3-((4-methylphenyl)sulfonamido)-N-(pyridin-3-ylmethyl) benzamide] | 800 ± 120 nM | – | –
19 | 800 ± 270 nM | COc1ccc(CNC(=O)c2ccc(C)c(NS(=O)(=O)c3ccc(C)cc3)c2)cn1 [Example 34, N-((6-methoxypyridin-3-yl)methyl)-4-methyl-3-((4-methylphenyl)sulfonamido)benzamide] | 6 ± 2 nM | obvious STAT3 transcription inhibition activity | inhibitory activity on STAT3 phosphorylation (p-STAT3 (Tyr705); DU145, 0.1 μM concentration): obvious inhibitory activity
20 | 17500 ± 300 nM | Cc1ccc(S(=O)(=O)Nc2cc(C(=O)NCc3cccnc3)ccc2C)s1 [Example 30, 4-methyl-3-((5-methylthiophene)-2-sulfonamido)-N-(pyridin-3-ylmethyl)benzamide] | 1200 ± 30 nM | obvious STAT3 transcription inhibition activity | –
21 | – | Cc1ccc(C(=O)NCc2cccnc2)cc1NS(=O)(=O)c1ccc(C(C)C)cc1 [Example 22, 3-((4-isopropylphenyl)sulfonamido)-4-methyl-N-(pyridin-3-ylmethyl)benzamide] | 1000 ± 160 nM | – | –
22 | – | Cc1ccc(S(=O)(=O)Nc2ccc(C)c(C(=O)NCc3cccnc3)c2)cc1 [Example 11, 2-methyl-5-((4-methylphenyl)sulfonamido)-N-(pyridin-3-ylmethyl)benzamide] | 2000 ± 30 nM | – | –
23 | – | COc1ccc(S(=O)(=O)Nc2cc(C(=O)NCc3cccnc3)ccc2C)cn1 [Example 32, 3-((6-methoxypyridine)-3-sulfonamido)-4-methyl-N-(pyridin-3-ylmethyl)benzamide] | 400 ± 20 nM | – | –
24 | – | Cc1ccc(C(=O)NCc2cccnc2)cc1NS(=O)(=O)c1ccc(Cl)cc1 [Example 21, 3-((4-chlorophenyl)sulfonamido)-4-methyl-N-(pyridin-3-ylmethyl)benzamide] | 930 ± 50 nM | – | –
25 | – | COc1cccc(S(=O)(=O)Nc2cc(C(=O)NCc3cccnc3)ccc2C)c1 [Example 14, 3-((3-methoxyphenyl)sulfonamido)-4-methyl-N-(pyridin-3-ylmethyl)benzamide] | 2500 ± 20 nM | – | –
26 | – | Cc1ccc(S(=O)(=O)Nc2cc(C(=O)NCc3cccnc3)ccc2F)cc1 [Example 3, 4-fluoro-3-((4-methylphenyl)sulfonamido)-N-(pyridin-3-ylmethyl) benzamide] | 790 ± 130 nM | – | –
